pIC50: −log10 of the molar value. Counter-ions that a name gives are not always drawn.
These molecules were tested against T1, PI3Kδ (p110δ/p85α) (Homo sapiens, UniProt O00329) (assay: PI3Kδ scintillation proximity assay). Details: not given.
T1 construct: purchased Millipore (Bedford, Mass.)
Format: biochemical
From the text: Materials: [γ-^33P]ATP (10 mCi/mL) was purchased from Perkin-Elmer (Waltham, Mass.). Lipid kinase substrate, D-myo-Phosphatidylinositol 4,5-bisphosphate (PtdIns(4,5)P2)D (+)-sn-1,2-di-O-octanoylglyceryl, 3-O-phospho linked (PIP2), CAS 204858-53-7, was purchased from Echelon Biosciences (Salt Lake City, Utah). PI3Kδ (p110δ/p85α) was purchased from Millipore (Bedford, Mass.). ATP, MgCl2, DTT, EDTA, MOPS and CHAPS were purchased from Sigma-Aldrich (St. Louis, Mo.). Wheat Germ Agglutinin (WGA) YSi SPA Scintillation Beads was purchased from GE healthcare life sciences (Piscataway, N.J.).
Assay: The kinase reaction was conducted in polystyrene 384-well matrix white plate from Thermo Fisher Scientific in a final volume of 25 μL. Inhibitors were first diluted serially in DMSO and added to the plate wells before the addition of other reaction components. The final concentration of DMSO in the assay was 0.5%. The PI3K assays were carried out at room temperature in 20 mM MOPS, pH 6.7, 10 mM MgCl2, 5 mM DTT and CHAPS 0.03%. Reactions were initiated by the addition of ATP, the final reaction mixture consisted of 20 μM PIP2, 20 μM ATP, 0.2 μCi [γ-^33P] ATP, 4 nM PI3Kδ. Reactions were incubated for 210 minutes and terminated by the addition of 40 μL SPA beads suspended in quench buffer: 150 mM potassium phosphate pH 8.0, 20% glycerol. 25 mM EDTA, 400 μM ATP. The final concentration of SPA beads is 1.0 mg/mL. After the plate sealing, plates were shaken overnight at room temperature and centrifuged at 1800 rpm for 10 minutes, the radioactivity of the product was determined by scintillation counting on Topcount (Perkin-Elmer). IC50 determination was performed by fitting the curve of percent control activity versus the log of the inhibitor concentration using the GraphPad Prism® 3.0 software.

T1 sequence (O00329 whole entry): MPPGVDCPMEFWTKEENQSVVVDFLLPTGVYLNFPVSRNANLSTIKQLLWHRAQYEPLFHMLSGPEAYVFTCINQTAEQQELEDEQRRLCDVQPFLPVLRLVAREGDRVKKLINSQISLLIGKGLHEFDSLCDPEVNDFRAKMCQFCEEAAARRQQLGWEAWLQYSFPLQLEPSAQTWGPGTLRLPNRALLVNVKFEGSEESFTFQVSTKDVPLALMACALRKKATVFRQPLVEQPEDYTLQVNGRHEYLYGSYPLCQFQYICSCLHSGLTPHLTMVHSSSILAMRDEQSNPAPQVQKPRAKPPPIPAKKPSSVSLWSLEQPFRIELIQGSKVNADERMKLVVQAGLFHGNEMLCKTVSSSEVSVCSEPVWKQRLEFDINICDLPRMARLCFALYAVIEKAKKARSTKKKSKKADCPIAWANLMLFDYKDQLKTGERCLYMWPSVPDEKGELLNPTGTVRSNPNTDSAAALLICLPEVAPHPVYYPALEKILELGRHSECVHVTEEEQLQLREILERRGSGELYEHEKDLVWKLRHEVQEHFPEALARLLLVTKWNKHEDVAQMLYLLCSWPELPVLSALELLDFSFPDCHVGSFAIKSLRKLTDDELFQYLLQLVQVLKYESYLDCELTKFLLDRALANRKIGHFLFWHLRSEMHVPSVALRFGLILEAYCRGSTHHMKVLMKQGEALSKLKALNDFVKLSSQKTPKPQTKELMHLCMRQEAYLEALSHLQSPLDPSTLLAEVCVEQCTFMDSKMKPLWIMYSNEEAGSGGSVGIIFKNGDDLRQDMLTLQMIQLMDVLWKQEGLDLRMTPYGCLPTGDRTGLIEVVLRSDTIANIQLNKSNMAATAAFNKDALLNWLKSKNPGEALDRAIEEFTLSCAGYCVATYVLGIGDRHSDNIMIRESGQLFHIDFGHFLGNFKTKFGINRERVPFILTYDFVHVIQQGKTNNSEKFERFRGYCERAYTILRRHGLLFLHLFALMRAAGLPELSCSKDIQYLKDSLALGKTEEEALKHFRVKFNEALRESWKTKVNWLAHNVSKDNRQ
T1 sequence (P27986 whole entry partner): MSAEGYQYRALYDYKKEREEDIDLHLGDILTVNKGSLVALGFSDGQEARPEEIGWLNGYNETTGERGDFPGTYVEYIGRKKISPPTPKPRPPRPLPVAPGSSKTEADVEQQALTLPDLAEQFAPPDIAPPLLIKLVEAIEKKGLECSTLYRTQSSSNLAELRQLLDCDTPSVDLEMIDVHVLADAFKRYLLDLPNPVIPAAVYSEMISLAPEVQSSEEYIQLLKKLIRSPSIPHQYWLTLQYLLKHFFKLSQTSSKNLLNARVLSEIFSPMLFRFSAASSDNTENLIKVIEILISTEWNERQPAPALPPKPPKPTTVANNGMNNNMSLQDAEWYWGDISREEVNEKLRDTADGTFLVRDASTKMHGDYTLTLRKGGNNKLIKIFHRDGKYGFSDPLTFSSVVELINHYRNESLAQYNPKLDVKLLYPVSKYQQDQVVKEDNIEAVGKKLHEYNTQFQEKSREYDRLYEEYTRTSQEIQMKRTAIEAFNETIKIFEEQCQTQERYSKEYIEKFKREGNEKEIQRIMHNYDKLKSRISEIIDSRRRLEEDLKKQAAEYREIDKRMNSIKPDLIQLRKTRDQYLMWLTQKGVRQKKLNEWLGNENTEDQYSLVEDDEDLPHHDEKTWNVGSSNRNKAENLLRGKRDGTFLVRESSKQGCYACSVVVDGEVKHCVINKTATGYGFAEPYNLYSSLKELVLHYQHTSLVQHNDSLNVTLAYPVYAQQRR

| Structure (SMILES) | pIC50 |
| --- | --- |
| Fc1cccc(-c2c(CNc3ncnc4[nH]cnc34)cc(Cl)c3ccnnc23)c1 [Example 31, N-{[5-Chloro-8-(3-fluorophenyl)cinnolin-7-yl]methyl}-9H-purin-6-amine trifluoroacetate] | 6.00 to 6.30 |
| CNC(=O)c1cc(F)cc(-c2c(C(C)Nc3ncnc4[nH]cnc34)cc(Cl)c3ccnnc23)c1 (stereo not shown) [Example 40, 3-{5-Chloro-7-[1-(9H-purin-6-ylamino)ethyl]cinnolin-8-yl}-5-fluoro-N-methylbenzamide] | < 6.00 |
| COc1ccc(-c2c(C(C)Nc3ncnc4[nH]cnc34)cc(Cl)c3ccnnc23)cc1F (stereo not shown) [Example 41, N-{1-[5-Chloro-8-(3-fluoro-4-methoxyphenyl)cinnolin-7-yl]ethyl}-9H-purin-6-amine] | 6.00 to 6.30 |
| CC(Nc1ncnc2[nH]cnc12)c1cc(Cl)c2ccnnc2c1-c1ccnc(F)c1 (stereo not shown) [Example 42, N-{1-[5-Chloro-8-(2-fluoropyridin-4-yl)cinnolin-7-yl]ethyl}-9H-purin-6-amine] | 6.00 to 6.30 |
| CC(Nc1ncnc2[nH]cnc12)c1cc(Cl)c2cccnc2c1N1CCC(F)(F)CC1 (stereo not shown) [Example 47, N-{1-[5-Chloro-8-(4,4-difluoropiperidin-1-yl)quinolin-7-yl]ethyl}-9H-purin-6-amine] | 6.00 to 6.30 |
| CC(Nc1ncnc2[nH]cnc12)c1cc(Cl)c2cccnc2c1N1CCC(O)(c2ccccc2)CC1 (stereo not shown) [Example 49, 1-{5-Chloro-7-[1-(9H-purin-6-ylamino)ethyl]quinolin-8-yl}-4-phenylpiperidin-4-ol] | < 6.00 |
| Cc1cc(C(C)Nc2ncnc3[nH]cnc23)c(-c2cccc(F)c2)c2ncccc12 (stereo not shown) [Example 50, N-{1-[8-(3-Fluorophenyl)-5-methylquinolin-7-yl]ethyl}-9H-purin-6-amine] | 6.60 to 7.00 |
| CC(Nc1ncnc2[nH]cnc12)c1cc(Cl)c2cccnc2c1N1CCC(C#N)CC1 (stereo not shown) [Example 59, 1-{5-Chloro-7-[1-(9H-purin-6-ylamino)ethyl]quinolin-8-yl]piperidine-4-carbonitrile bis(trifluoroacetate)] | 6.60 to 7.00 |
| CC(Nc1ncnc2[nH]cnc12)c1cc(Cl)c2cccnc2c1N1CCCC(F)C1 (stereo not shown) [Example 61, N-{1-[5-Chloro-8-(3-fluoropiperidin-1-yl)quinolin-7-yl]ethyl}-9H-purin-6-amine bis(trifluoroacetate)] | 6.30 to 6.60 |
| CC(Nc1ncnc2[nH]cnc12)c1cc(Cl)c2cccnc2c1N1CCC(F)CC1 (stereo not shown) [Example 62, N-{1-[5-Chloro-8-(4-fluoropiperidin-1-yl)quinolin-7-yl]ethyl}-9H-purin-6-amine bis(trifluoroacetate)] | 6.60 to 7.00 |
| CC(Nc1ncnc2[nH]cnc12)c1cc(Cl)c2cccnc2c1N1CCC(CO)CC1 (stereo not shown) [Example 64, (1-{5-Chloro-7-[1-(9H-purin-6-ylamino)ethyl]quinolin-8-yl}piperidin-4-yl)methanol tris(trifluoroacetate)] | 6.60 to 7.00 |
| CC(Nc1ncnc2[nH]cnc12)c1cc(Cl)c2cccnc2c1N1CCC(c2ccccc2)CC1 (stereo not shown) [Example 72, N-{1-[5-Chloro-8-(4-phenylpiperidin-1-yl)quinolin-7-yl]ethyl}-9H-purin-6-amine bis(trifluoroacetate)] | < 6.00 |
| CC(Nc1ncnc2[nH]cnc12)c1cc(Cl)c2cccnc2c1N1CCC(CCO)CC1 (stereo not shown) [Example 73, 2-(1-{5-Chloro-7-[1-(9H-purin-6-ylamino)ethyl]quinolin-8-yl}piperidin-4-yl)ethanol bis(trifluoroacetate)] | 6.60 to 7.00 |

Other lines, results leading:

| pIC50 | Structure (SMILES) |
| --- | --- |
| > 7.30 | CC(=O)N[C@H]1CCN(c2c(C(C)Nc3ncnc4[nH]cnc34)cc(Cl)c3cccnc23)C1 (stereo partly drawn) [Example 13, N-((3S)-1-{5-chloro-7-[1-(9H-purin-6-ylamino)ethyl]quinolin-8-yl}pyrrolidin-3-yl}acetamide bis-trifluoroacetate] |
| > 7.30 | CC(Nc1ncnc2[nH]cnc12)c1cc(Cl)c2cccnc2c1-c1cccc(F)c1 (stereo not shown) [Example 15, N-{1-[5-chloro-8-(3-fluorophenyl)quinolin-7-yl]ethyl}-9H-purin-6-amine bis-trifluoroacetate] |
| 6.60 to 7.00 | CC(Nc1ncnc2[nH]cnc12)c1cc(F)c2ccnnc2c1-c1cccc(F)c1 (stereo not shown) [Example 19, N-{1-[5-Fluoro-8-(3-fluorophenyl)cinnolin-7-yl]ethyl}-9H-purin-6-amine] |
| > 7.30 | CC(Nc1ncnc2[nH]cnc12)c1cc(Cl)c2cccnc2c1N1CCC(O)CC1 (stereo not shown) [Example 43, 1-{5-Chloro-7-[1-(9H-purin-6-ylamino)ethyl]quinolin-8-yl}piperidin-4-ol] |
| 6.60 to 7.00 | Cc1nc(C(C)Nc2ncnc3[nH]cnc23)c(-c2cccc(F)c2)c2ccccc12 (stereo not shown) [Example 44, N-{1-[4-(3-Fluorophenyl)-1-methylisoquinolin-3-yl]ethyl}-9H-purin-6-amine] |
| > 7.30 | CC(Nc1ncnc2[nH]cnc12)c1cc(Cl)c2ccccc2c1N1CCC(O)CC1 (stereo not shown) [Example 45, 1-{4-Chloro-2-[1-(9H-purin-6-ylamino)ethyl]-1-naphthyl}piperidin-4-ol] |
| 6.60 to 7.00 | CC(Nc1ncnc2[nH]cnc12)c1cc(Cl)c2ccccc2c1-c1cccc(F)c1 (stereo not shown) [Example 46, N-{1-[4-Chloro-1-(3-fluorophenyl)-2-naphthyl]ethyl}-9H-purin-6-amine] |
| 7.00 to 7.30 | CCc1cc(C(C)Nc2ncnc3[nH]cnc23)c(-c2cccc(F)c2)c2ncccc12 (stereo not shown) [Example 51, N-{1-[5-Ethyl-8-(3-fluorophenyl)quinolin-7-yl]ethyl}-9H-purin-6-amine bis(trifluoroacetate)] |
| 7.00 to 7.30 | CC(Nc1ncnc2[nH]cnc12)c1cc(C#N)c2cccnc2c1-c1cccc(F)c1 (stereo not shown) [Example 52, 8-(3-fluorophenyl)-7-[1-(9H-purin-6-ylamino)ethyl]quinoline-5-carbonitrile] |
| 7.00 to 7.30 | CC(Nc1ncnc2[nH]cnc12)c1nc(C#N)c2ccccc2c1-c1cccc(F)c1 (stereo not shown) [Example 54, 4-(3-fluorophenyl)-3-[1-(9H-purin-6-ylamino)ethyl]isoquinoline-1-carbonitrile] |
| > 7.30 | CC(Nc1ncnc2[nH]cnc12)c1cc(F)c2cccnc2c1N1CCN(C2CCC2)CC1 (stereo not shown) [Example 55, N-{1-[8-(4-Cyclobutylpiperazin-1yl)-5-fluoroquinolin-7-yl]ethyl}-9H-purin-6-amine] |
| > 7.30 | CC(Nc1ncnc2[nH]cnc12)c1cc(Cl)c2ccncc2c1-c1cccc(F)c1 (stereo not shown) [Example 56, N-{1-[5-Chloro-8-(3-fluorophenyl)isoquinolin-7-yl]ethyl}-9H-purin-6-amine] |
| > 7.30 | CC(Nc1ncnc2[nH]cnc12)c1cc(Cl)c2cccnc2c1N1CCN(CCO)CC1 (stereo not shown) [Example 58, 2-(4-{5-Chloro-7-[1-(9H-purin-6-ylamino)ethyl]quinolin-8-yf}piperazin-1-yl)ethanol tris(trifluoroacetate)] |
| 7.00 to 7.30 | CC(Nc1ncnc2[nH]cnc12)c1cc(Cl)c2cccnc2c1N1CCN(C2CCCCC2)CC1 (stereo not shown) [Example 65, N-{1-[5-Chloro-8-(4-cyclohexylpiperazin-1-yl)quinolin-7-yl]ethyl}-9H-purin-6-amine tris(trifluoroacetate)] |
| > 7.30 | CC(Nc1ncnc2[nH]cnc12)c1cc(Cl)c2cccnc2c1N1CCN(C2CC2)CC1 (stereo not shown) [Example 66, N-{1-[5-Chloro-8-(4-cyclopropylpiperazin-1-yl)quinolin-7-yl]ethyl}-9H-purin-6-amine tris(trifluoroacetate)] |
| > 7.30 | CC(Nc1ncnc2[nH]cnc12)c1cc(Cl)c2cccnc2c1N1CCN(C2CCC2)CC1 (stereo not shown) [Example 69, N-{1-[5-Chloro-8-(4-cyclobutylpiperazin-1-yl)quinolin-7-yl]ethyl}-9H-purin-6-amine tris(trifluoroacetate)] |
| 7.00 to 7.30 | CC(Nc1ncnc2[nH]cnc12)c1cc(Cl)c2cccnc2c1N1CCC(N2CCCCC2)CC1 (stereo not shown) [Example 70, N-{1-[8-(1,4′-Bipiperidin-1′-yl)-5-chloroquinolin-7-yl]ethyl}-9H-purin-6-amine tris(trifluoroacetate)] |
| 7.00 to 7.30 | COC1CCN(c2c(C(C)Nc3ncnc4[nH]cnc34)cc(Cl)c3cccnc23)CC1 (stereo not shown) [Example 71, N-{1-[5-Chloro-8-(4-methoxypiperidin-1-yl)quinolin-7-yl]ethyl}-9H-purin-6-amine bis(trifluoroacetate)] |
| > 7.30 | CC(Nc1ncnc2[nH]cnc12)c1cc(Cl)c2cccnc2c1N1CCN(Cc2ccncc2)CC1 (stereo not shown) [Example 74, N-(1-{5-Chloro-8-[4-(pyridin-4-ylmethyl)piperazin-1-yl]quinolin-7-yl}ethyl)-9H-purin-6-amine tris(trifluoroacetate)] |

Same assay, conditions: separated isomer, 1st peak

| pIC50 | Structure (SMILES) |
| --- | --- |
| 6.30 to 6.60 | CC(Nc1ncnc2[nH]cnc12)c1cc(Cl)c2cccnc2c1N1CCC(c2ccccc2)C1 (stereo not shown) [Example 76, N-{1-[5-Chloro-8-(3-phenylpyrrolidin-1-yl)quinolin-7-yl]ethyl}-9H-purin-6-amine tris(trifluoroacetate)] |

Same assay, conditions: separated isomer, 2nd peak

| pIC50 | Structure (SMILES) |
| --- | --- |
| 6.30 to 6.60 | CC(Nc1ncnc2[nH]cnc12)c1cc(Cl)c2cccnc2c1N1CCC(c2ccccc2)C1 (stereo not shown) [Example 76, N-{1-[5-Chloro-8-(3-phenylpyrrolidin-1-yl)quinolin-7-yl]ethyl}-9H-purin-6-amine tris(trifluoroacetate)] |
